The record followed here is patent US10759803B2, “Asparagine endopeptidase (AEP) inhibitors for managing cancer and compositions related thereto” (priority 2014, dated 2020).

Each structure is given as a SMILES string. pIC50: −log10 of the molar value.

For one series, the target named is Cathepsin-L (Homo sapiens, UniProt P07711). The experiment in a line: Specificity assay against Cathepsin-L. It counts as biochemical.
The next series has as its system CYP3A. The experiment in a line: CYP inhibition screening, CYP3A-Testosterone. The series is classed as in vitro ADME.
A further series addresses CYP3A4 (Homo sapiens, UniProt P08684). The experiment in a line: CYP inhibition screening, CYP3A4-Midazolam. It counts as in vitro ADME.
Another series addresses Caspase-8 (Homo sapiens, UniProt Q14790). The experiment in a line: Specificity assay against Caspase-8. It counts as biochemical. How it is done: (§1) Purified recombinant enzyme was incubated with various concentrations of inhibitor in appropriate assay buffers in the presence of increasing concentrations of inhibitor. The formation of fluorescent product was monitored in duplicate reactions and the data was fit to appropriate equations to calculate the IC50 values.
(§2) To identify small-molecule inhibitors of AEP, a high-throughput screen was designed in conjunction with the Emory Chemical Biology Discovery Center. The screen incorporated mouse kidney lysates to assay a 54,384 compound library. […] Additional structural analysis and grouping allowed the compounds to be sorted into 8 distinct backbone families. […] The specificity of the compounds was also determined using four major cysteine proteases (FIG. 2).

Series [1] relates to amyloid precursor protein (APP) cleavage. The experiment in a line: APP cleavage in OGD-treated primary cortical neurons. It counts as cell-based. Particulars: 0.1 μM compound. How it is done: A. AEP activity, measured in primary neuronal cultures with 5 μM Cbz-Ala-Ala-Asn-AMC (x-axis denotes neurons were treated with 0.1 μM or 1.0 μM specified compound). B. Caspase activity, measured in primary neuronal cultures with 5 μM Ac-Asp-Glu-Val-Asp-AMC. C. Cathepsin activity, measured in primary neuronal cultures with 5 μM D-Val-Leu-Lys-AMC. D. Inhibition of APP cleavage. Lysates of primary cortical neurons pre-incubated with compounds for 30 min, underwent OGD for 4 hrs, were reperfused for 18 hrs (normoxia neurons remained at normoxic conditions). E. APP can be cleaved in a dose-dependent manner. Lysates of primary cortical neurons pre-incubated with compounds for 30 min, underwent OGD for 4 hrs, were reperfused for 18 hrs (normoxia neurons remained at normoxic conditions).
Depriving cells of oxygen and glucose is a cellular model that is employed to trigger acidosis in cultured cells. The efficacy of the compounds in a cellular model of oxygen-glucose deprivation (OGD) was determined in an effort to mimic the effects of stroke in primary cultured neurons. As a result of depriving neurons of oxygen and glucose-containing medium, AEP activity was doubled (FIG. 7A, ‘DMSO-Norm’ compared to ‘DMSO-OGD’), while Caspase-3 and Cathepsin activities remained relatively unchanged. […] Cleavage of APP is observed in response to only DMSO treatment (FIG. 7D, lane 2), and it appears that upon the treatment of 1 μM of compounds 10, 11, and 12, and just 0.1 μM of compound s31, 38 and 64, the cleavage was blocked, presumably due to AEP inhibition.

The target of the next series is T1, Caspase-3 (Homo sapiens, UniProt P42574).
T1 sequence (P42574 29-175 limits assumed): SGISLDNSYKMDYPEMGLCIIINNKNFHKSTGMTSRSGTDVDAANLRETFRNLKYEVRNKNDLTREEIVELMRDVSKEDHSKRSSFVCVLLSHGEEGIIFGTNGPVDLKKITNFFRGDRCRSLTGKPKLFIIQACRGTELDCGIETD
T1 sequence (P42574 176-277 limits assumed): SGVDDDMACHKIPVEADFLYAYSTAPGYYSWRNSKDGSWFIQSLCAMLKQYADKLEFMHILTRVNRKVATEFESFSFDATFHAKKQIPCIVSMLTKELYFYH
The experiment in a line: Specificity assay against Caspase-3. It counts as biochemical. How it is done: as §1, §2

Another series addresses CYP2C19 (Homo sapiens, UniProt P33261). The experiment in a line: CYP inhibition screening, CYP2C19. The series is classed as in vitro ADME.
A further series relates to Caco-2 monolayer. The experiment in a line: Caco-2 monolayer permeability screen. The settings on record: Table 1. (In general: Caco-2 cells form a polarised layer with tight junctions and transporters.)
The target in the next series is CYP2D6 (Homo sapiens, UniProt P10635). The experiment in a line: CYP inhibition screening, CYP2D6. It counts as in vitro ADME.
Another series deals with CYP2C9 (Homo sapiens, UniProt P11712). The experiment in a line: CYP inhibition screening, CYP2C9. The series is classed as in vitro ADME.
For the next series, the target named is T2, AEP (Homo sapiens, UniProt Q99538).
T2 construct: tested with purified active AEP, IC50 values for the top 8 candidates were found
T2 sequence (Q99538 18-323 limits assumed): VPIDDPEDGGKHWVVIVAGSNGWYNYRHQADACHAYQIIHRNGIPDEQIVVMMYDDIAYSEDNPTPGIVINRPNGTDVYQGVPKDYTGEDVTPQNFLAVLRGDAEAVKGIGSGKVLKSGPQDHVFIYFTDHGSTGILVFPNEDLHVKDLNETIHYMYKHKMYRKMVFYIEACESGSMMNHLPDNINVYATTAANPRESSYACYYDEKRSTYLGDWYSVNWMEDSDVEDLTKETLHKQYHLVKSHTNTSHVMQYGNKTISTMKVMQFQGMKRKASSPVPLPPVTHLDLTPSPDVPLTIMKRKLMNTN
The experiment in a line: IC50 assay with purified recombinant AEP. The series is classed as biochemical. The settings on record: purified active AEP; read-out: IC50 toward AEP. How it is done:
as §1, §2
Various concentrations of the appropriate compound were incubated with AEP reaction buffer (50 mM Sodium Citrate pH 5.5, 0.1% CHAPS, 60 mM Na2HPO4, 1 mM EDTA, final pH 6.0) and peptide substrate, 10 μM Cbz-Ala-Ala-Asn-AMC (Bachem). The reaction was initiated upon addition of 50 nM AEP and fluorescent product formation was monitored over 15 min. […] Data were analyzed with GraFit version 5.0.11 software package.

A further series addresses Cathepsin-S (Homo sapiens, UniProt P25774). The experiment in a line: Specificity assay against Cathepsin-S. It counts as biochemical. How it is done: as §1, §2
The target in the next series is T3, CYP1A2 (Homo sapiens, UniProt P05177).
T3 sequence (P05177 1-516): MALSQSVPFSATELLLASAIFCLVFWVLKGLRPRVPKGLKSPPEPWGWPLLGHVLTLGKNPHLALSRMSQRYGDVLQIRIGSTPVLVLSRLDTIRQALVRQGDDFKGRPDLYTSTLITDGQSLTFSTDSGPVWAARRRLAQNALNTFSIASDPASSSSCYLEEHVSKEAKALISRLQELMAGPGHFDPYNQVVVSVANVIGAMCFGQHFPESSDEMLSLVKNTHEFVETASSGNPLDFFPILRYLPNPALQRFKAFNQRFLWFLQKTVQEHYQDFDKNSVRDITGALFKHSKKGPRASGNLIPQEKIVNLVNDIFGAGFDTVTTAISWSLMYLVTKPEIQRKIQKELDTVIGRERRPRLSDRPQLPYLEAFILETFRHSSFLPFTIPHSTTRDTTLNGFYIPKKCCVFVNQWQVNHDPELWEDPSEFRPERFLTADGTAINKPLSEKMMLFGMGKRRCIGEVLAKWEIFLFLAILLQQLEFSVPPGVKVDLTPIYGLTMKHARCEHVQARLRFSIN
The experiment in a line: CYP inhibition screening, CYP1A2. It counts as in vitro ADME.

CYP2C9, sequence (P11712 whole entry): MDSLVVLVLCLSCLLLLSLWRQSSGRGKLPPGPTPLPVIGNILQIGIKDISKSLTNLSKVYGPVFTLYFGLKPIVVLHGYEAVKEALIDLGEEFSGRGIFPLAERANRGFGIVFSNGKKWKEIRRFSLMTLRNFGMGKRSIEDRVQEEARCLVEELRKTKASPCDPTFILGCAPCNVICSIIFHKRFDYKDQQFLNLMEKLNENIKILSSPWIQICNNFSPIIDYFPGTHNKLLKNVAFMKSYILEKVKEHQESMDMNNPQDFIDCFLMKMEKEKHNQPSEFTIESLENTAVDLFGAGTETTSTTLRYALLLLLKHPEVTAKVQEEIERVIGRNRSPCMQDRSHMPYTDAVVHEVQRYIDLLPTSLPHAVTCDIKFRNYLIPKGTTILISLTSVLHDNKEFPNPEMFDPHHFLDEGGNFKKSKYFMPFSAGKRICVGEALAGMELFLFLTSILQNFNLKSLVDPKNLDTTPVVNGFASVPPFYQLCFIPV
CYP3A4, sequence (P08684 whole entry): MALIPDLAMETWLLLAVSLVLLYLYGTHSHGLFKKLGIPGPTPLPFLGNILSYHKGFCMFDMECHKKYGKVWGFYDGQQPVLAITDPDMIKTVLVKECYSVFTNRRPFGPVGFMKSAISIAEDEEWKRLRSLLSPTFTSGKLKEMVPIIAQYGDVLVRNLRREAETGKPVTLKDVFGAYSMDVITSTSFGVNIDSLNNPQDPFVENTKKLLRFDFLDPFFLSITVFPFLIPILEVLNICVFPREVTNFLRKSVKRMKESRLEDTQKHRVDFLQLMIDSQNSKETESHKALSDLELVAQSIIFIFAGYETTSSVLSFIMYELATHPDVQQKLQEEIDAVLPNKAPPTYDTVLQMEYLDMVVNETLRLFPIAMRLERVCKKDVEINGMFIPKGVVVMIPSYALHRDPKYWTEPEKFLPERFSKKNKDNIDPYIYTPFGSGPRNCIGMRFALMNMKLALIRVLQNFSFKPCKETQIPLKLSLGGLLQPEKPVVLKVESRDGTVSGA
CYP2D6, sequence (P10635 whole entry): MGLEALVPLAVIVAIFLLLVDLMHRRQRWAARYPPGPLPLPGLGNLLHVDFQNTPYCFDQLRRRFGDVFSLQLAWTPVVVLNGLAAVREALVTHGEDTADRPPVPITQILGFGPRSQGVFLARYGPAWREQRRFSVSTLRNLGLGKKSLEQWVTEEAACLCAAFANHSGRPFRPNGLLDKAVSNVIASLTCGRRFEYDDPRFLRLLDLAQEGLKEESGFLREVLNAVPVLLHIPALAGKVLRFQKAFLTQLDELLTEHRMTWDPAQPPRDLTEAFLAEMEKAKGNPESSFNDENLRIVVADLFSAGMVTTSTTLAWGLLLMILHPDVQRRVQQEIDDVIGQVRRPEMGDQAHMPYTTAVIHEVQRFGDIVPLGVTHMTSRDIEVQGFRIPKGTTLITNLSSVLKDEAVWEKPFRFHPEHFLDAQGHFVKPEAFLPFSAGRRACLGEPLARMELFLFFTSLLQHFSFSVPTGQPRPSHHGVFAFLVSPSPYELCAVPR
CYP2C19, sequence (P33261 whole entry): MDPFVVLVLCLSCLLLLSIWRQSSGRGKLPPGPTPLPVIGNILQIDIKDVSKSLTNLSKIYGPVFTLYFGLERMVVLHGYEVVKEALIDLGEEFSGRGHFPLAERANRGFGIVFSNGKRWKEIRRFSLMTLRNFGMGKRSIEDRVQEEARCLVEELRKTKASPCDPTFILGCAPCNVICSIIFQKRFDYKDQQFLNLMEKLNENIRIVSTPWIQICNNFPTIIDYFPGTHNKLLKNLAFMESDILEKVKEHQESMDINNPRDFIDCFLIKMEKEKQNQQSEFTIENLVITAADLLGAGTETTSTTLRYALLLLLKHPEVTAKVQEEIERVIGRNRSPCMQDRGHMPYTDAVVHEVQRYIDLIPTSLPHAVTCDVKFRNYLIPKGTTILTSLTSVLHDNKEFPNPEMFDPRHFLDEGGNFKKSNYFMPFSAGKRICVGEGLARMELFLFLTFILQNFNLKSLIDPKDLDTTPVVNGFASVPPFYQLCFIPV
Cathepsin-S, sequence (P25774 115-331, species assumed): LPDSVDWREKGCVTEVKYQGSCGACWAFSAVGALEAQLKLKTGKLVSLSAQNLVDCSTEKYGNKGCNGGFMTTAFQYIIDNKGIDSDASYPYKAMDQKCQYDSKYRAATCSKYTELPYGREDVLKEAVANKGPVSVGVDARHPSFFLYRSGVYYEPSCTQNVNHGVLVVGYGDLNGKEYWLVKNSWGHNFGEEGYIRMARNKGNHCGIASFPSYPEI
Caspase-8, sequence (Q14790 217-374 limits assumed, species assumed): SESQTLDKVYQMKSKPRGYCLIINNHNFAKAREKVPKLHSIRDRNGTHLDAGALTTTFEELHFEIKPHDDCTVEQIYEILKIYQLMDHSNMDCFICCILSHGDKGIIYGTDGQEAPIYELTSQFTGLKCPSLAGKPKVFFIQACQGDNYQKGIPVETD
Caspase-8, sequence (Q14790 385-479 limits assumed, species assumed): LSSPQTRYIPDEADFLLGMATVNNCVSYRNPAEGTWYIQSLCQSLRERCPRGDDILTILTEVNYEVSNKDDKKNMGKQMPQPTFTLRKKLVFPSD
Cathepsin-L, sequence (P07711 114-333, species assumed): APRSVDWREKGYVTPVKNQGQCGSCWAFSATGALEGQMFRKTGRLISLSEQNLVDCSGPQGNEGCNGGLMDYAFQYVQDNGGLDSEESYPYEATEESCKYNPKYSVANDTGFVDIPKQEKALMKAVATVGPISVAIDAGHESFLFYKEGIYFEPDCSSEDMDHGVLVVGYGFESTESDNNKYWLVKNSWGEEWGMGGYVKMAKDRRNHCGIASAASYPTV
Procedure for Caco-2 monolayer: To explore the in vitro ADME profiles of the compounds, additional tests were conducted.

With `CCN(CC)c1ccc(CN2CCc3nc(C)[nH]c(=O)c3C2)c(OC)c1` [Compound 64], the “selectivity for AEP over Cathepsin-L” value on Cathepsin-L is given as “over 40 fold”. Further, the CYP3A-Testosterone inhibition in the series with CYP3A (3 μM) is 1.5%; with CYP3A (10 μM) it was −0.1%. The CYP3A4-Midazolam inhibition at CYP3A4 (3 μM) was 0.6%; on CYP3A4 (10 μM), 10.1%. Also, the “selectivity for AEP over Caspase-8” value at Caspase-8 is “over 40 fold”. For the same molecule, the “APP cleavage after OGD” value in [1] was “blocked”. In addition, the “selectivity for AEP over Caspase-3” value at Caspase-3 is listed as “about 6 fold”. The CYP2C19 inhibition on CYP2C19 (3 μM) worked out at 31.6%; at CYP2C19 (10 μM), 20.4%. In addition, the “A −>B Papp” value in the series with Caco-2 monolayer is on record as “<LLOQ”. For the same molecule, the “B −> A Papp” value with Caco-2 monolayer is “<LLOQ”. The CYP2D6 inhibition on CYP2D6 (3 μM) is 34.6%; at CYP2D6 (10 μM) it was 58.3%. Moreover, the CYP2C9 inhibition was determined as 4.6% at CYP2C9 (3 μM) and 7.9% at CYP2C9 (10 μM). Moreover, at AEP, the pIC50 is 5.63. At Cathepsin-S, the “selectivity for AEP over Cathepsin-S” value is “over 40 fold”. For the same molecule, the CYP1A2 inhibition at CYP1A2 (3 μM) was determined as 73.7%; at CYP1A2 (10 μM), 22.2%.

A word on the pIC50: it is −log10 of the IC50, conventionally taken in molar units.
